Reference: US9821031B2, “Methods and compositions for treating hypoglycemic disorders” (priority 2007, dated 2017)
“Also recorded” adds a separate entry of the source. Marks after values point to notes of the source that are not given here.

Assays:
SUR-1−/− mice [1] = test: Fasting hormonal profile (insulin, glucagon, insulin/glucose ratio); format: in vivo, mouse
Method: Alzet mini-osmotic pumps (model 2002; Alza, Palo Alto, Calif.) were implanted subcutaneously to deliver exendin-(9-39) (Bachem Bioscience, King of Prussia, Pa.) at a rate of 150 pmol/kg/min or vehicle (0.9% NaCl/1% BSA) for 2 weeks. For determination of fasting blood glucose levels mice were fasted for 12-16 hours. Oral glucose tolerance testing was carried after a 12-16 hour fast by administering 2 g/kg of dextrose by oral gavage (feeding needles; Popper and Sons, Inc., Hyde Park, N.Y.). For insulin tolerance testing mice received 0.5 units/kg of insulin intraperitoneally after a 4 hour fast. Blood glucose levels were measured using a hand-held glucose meter (FreeStyle; TheraSense, Alameda, Calif.). Insulin and glucagon were measured by ELISA (Mouse Endocrine Immunoassay Panel; Linco Research, Inc., St. Charles, Mo.).

SUR-1−/− islets [2] = test: Islet perifusion, fuel-induced insulin secretion; format: cell-based, mouse; details: perifused SUR-1−/− islets
Method: Islets were isolated by collagenase digestion and cultured for 3 days in RPMI 1640 medium containing 10 mM glucose. The culture medium was supplemented with 10% fetal bovine serum, 2 mM glutamine, 100 units/mL penicillin, and 50 μg/mL streptomycin. Islets were incubated at 37° C. in a 5% CO2, 95% air-humidified incubator. Batches of 100 cultured mouse islets were loaded onto a nylon filter in a chamber and perifused with Krebs-Ringer bicarbonate buffer (115 mM NaCl, 24 mM NaHCO3, 5 mM KCl, 1 mM MgCl2, 2.5 mM CaCl2, 10 mM HEPES, pH 7.4) with 0.25% bovine serum albumin at a flow rate of 2 mL/min. Perifusate solutions were gassed with 95% O2, 5% CO2 and maintained at 37° C. Islets were stimulated with a ramp of amino acids. The physiologic mixture of 19 amino acids when used at a maximum concentration of 12 mM (about 3 times physiological concentration) had the following composition (in mM): glutamine 2, alanine 1.25, arginine 0.53, aspartate 0.11, citrulline 0.27, glutamate 0.35, glycine 0.85, histidine 0.22, isoleucine 0.27, leucine 0.46, lysine 1.06, methionine 0.14, ornithine 0.20, phenylalanine 0.23, proline 1, serine 1.62, threonine 0.77, tryptophan 0.21, valine 0.57. Samples were collected every minute for insulin assays. Insulin was measured by radioimmunoassay (Linco Research Inc., St. Charles, Mo.).

SUR-1−/− mice [3] = test: Oral glucose tolerance test; format: in vivo, mouse
Method: (§1) Alzet mini-osmotic pumps (model 2002; Alza, Palo Alto, Calif.) were implanted subcutaneously to deliver exendin-(9-39) (Bachem Bioscience, King of Prussia, Pa.) at a rate of 150 pmol/kg/min or vehicle (0.9% NaCl/1% BSA) for 2 weeks. For determination of fasting blood glucose levels mice were fasted for 12-16 hours. Oral glucose tolerance testing was carried after a 12-16 hour fast by administering 2 g/kg of dextrose by oral gavage (feeding needles; Popper and Sons, Inc., Hyde Park, N.Y.). For insulin tolerance testing mice received 0.5 units/kg of insulin intraperitoneally after a 4 hour fast. Blood glucose levels were measured using a hand-held glucose meter (FreeStyle; TheraSense, Alameda, Calif.). Insulin and glucagon were measured by ELISA (Mouse Endocrine Immunoassay Panel; Linco Research, Inc., St. Charles, Mo.). Twelve-18 week old male SUR-1^−/− and wildtype littermates underwent a baseline evaluation including fasting blood glucose measurements and oral glucose tolerance testing, followed by randomization to treatment with exendin-(9-39) (150 pmol/kg/min) or vehicle (0.9% NaCl, 1% BSA). Fasting blood glucose levels were determined after an overnight fast on days 3 and 7 of the infusion. In addition, oral glucose tolerance and insulin sensitivity were evaluated during treatment. […] After an oral load of glucose, SUR-1^−/− mice were glucose intolerant when compared to littermate wild-type controls (p<0.0001, repeated measures ANOVA) (FIG. 1C). The SUR-1^−/− mice have a significant impairment of insulin secretion in response to an oral glucose load (wildtype vs. SUR-1^−/−: p=0.02, repeated measures ANOVA) (FIG. 1D). Exendin-(9-39) was administered via an Azlet miniosmotic subcutaneous pump at a continuous infusion rate of 150 pmol/kg/min for 2 weeks. This dose was chosen based on results of a pilot study evaluating different doses previously shown to have an effect in normal humans and mice.

wild-type littermates [4] = test: Oral glucose tolerance test; format: in vivo, mouse; details: oral glucose 2 g/kg, during treatment (FIG. 4A)
Method: as §1

[5] = system: SUR-1−/− and wild-type mice; test: Insulin tolerance test (insulin sensitivity); format: in vivo, mouse; details: insulin 0.5 units/kg i.p. after 4 hour fast, any of the treatment groups (FIG. 4B)
Method: Alzet mini-osmotic pumps (model 2002; Alza, Palo Alto, Calif.) were implanted subcutaneously to deliver exendin-(9-39) (Bachem Bioscience, King of Prussia, Pa.) at a rate of 150 pmol/kg/min or vehicle (0.9% NaCl/1% BSA) for 2 weeks. For determination of fasting blood glucose levels mice were fasted for 12-16 hours. Oral glucose tolerance testing was carried after a 12-16 hour fast by administering 2 g/kg of dextrose by oral gavage (feeding needles; Popper and Sons, Inc., Hyde Park, N.Y.). For insulin tolerance testing mice received 0.5 units/kg of insulin intraperitoneally after a 4 hour fast. Blood glucose levels were measured using a hand-held glucose meter (FreeStyle; TheraSense, Alameda, Calif.). Insulin and glucagon were measured by ELISA (Mouse Endocrine Immunoassay Panel; Linco Research, Inc., St. Charles, Mo.). Twelve-18 week old male SUR-1^−/− and wildtype littermates underwent a baseline evaluation including fasting blood glucose measurements and oral glucose tolerance testing, followed by randomization to treatment with exendin-(9-39) (150 pmol/kg/min) or vehicle (0.9% NaCl, 1% BSA). Fasting blood glucose levels were determined after an overnight fast on days 3 and 7 of the infusion. In addition, oral glucose tolerance and insulin sensitivity were evaluated during treatment. […]

SUR-1−/− islets [6] = test: Cytosolic free Ca2+ measurement (Fura-2); format: cell-based, mouse; details: for Amino acid-stimulated rise in intracellular calcium: SUR-1−/− islets, amino acids 4 mM (FIG. 6)
Method: Mouse islets were isolated and cultured on poly-[…] coated glass coverslips under the same conditions as described above. The perifusion procedure and cytosolic-free Ca2+ ([Ca2+]i) measurement were described previously (24). In brief, the coverslip with attached islets was incubated with 15 μM Fura-2 acetoxymethylester (Molecular Probes, Eugene, Oreg.) in Krebs-Ringer bicarbonate buffer with 5 mM glucose for 35 min at 37° C. Islets were then perifused with Krebs-Ringer bicarbonate buffer with 0.25% bovine serum albumin at 37° C. at a flow rate of 2mL/min, while various agents were applied. [Ca2+]i was measured with a dual wavelength fluorescence microscope as previously described.

SUR-1−/− islets [7] = test: Insulin secretion in static incubations of isolated islets; format: cell-based, mouse
SUR-1−/− mice [8] = test: Fasting blood glucose during continuous subcutaneous exendin-(9-39) infusion; format: in vivo, mouse; details: for Fasting blood glucose levels: 150 pmol/kg/min s.c. pump, overnight fast
Description: as §1, with “SUR-1^−/− mice were kindly provided by Dr. Mark A. Magnuson. The generation and genotyping of SUR-1^−/− mice were previously described (8). Mice are maintained in a C57B1/6 genetic background. Twelve to eighteen week SUR-1^−/− and wild-type littermate control mice were used in all experiments. Mice were maintained on a 12:12-h light-dark cycle and were fed a standard rodent chow diet. All procedures were approved and carried out according to the University of Pennsylvania Institutional Animal Care and Use Committee Guidelines. Alzet” for “Alzet”

wild-type littermates [9] = test: as above; format: in vivo, mouse; details: wild-type mice, 150 pmol/kg/min
Description: as §1, with “SUR-1^−/− mice were kindly provided by Dr. Mark A. Magnuson. The generation and genotyping of SUR-1^−/− mice were previously described (8). Mice are maintained in a C57B1/6 genetic background. Twelve to eighteen week SUR-1^−/− and wild-type littermate control mice were used in all experiments. Mice were maintained on a 12:12-h light-dark cycle and were fed a standard rodent chow diet. All procedures were approved and carried out according to the University of Pennsylvania Institutional Animal Care and Use Committee Guidelines. Alzet” for “Alzet”

SUR-1−/− islets [10] = test: cAMP content determination in static incubations of isolated islets; format: cell-based, mouse
Method: Islets were isolated as above, hand-picked and cultured for three days. Cultured islets were preincubated in glucose free Krebs-Ringer bicarbonate buffer for 60 min, 100 nM exendin-(9-39) was added 30 min into the preincubation period. Then, islets were exposed to different treatments for an additional 30 min in the presence of 0.1 mM isobutyl-methylzanthine (IBMX). After incubation, islets were washed 2 times by cold glucose-free Hank's buffer. cAMP was measured in islet lysates by ELISA (GE/Amersham Biosciences, Piscataway, N.J.).

[11] = during treatment, SUR-1−/− and wild-type (FIG. 3A)

Exendin (9-39) [Exendin-(9-39)]
Insulin/glucose ratio (SUR-1−/− mice [1]; SUR-1−/− mice, WT vs. SUR-1−/− Ex-(9-39) p=0.32 (FIG. 3B)): normalized | Fasting glucagon levels among treatment groups (SUR-1−/− mice [1]; [11]): not different | Fasting insulin levels among treatment groups (SUR-1−/− mice [1]; [11]): not different | Insulin response to KCl, presence vs. absence of exendin-(9-39) (SUR-1−/− islets [2]; 100 nM exendin-(9-39)): similar | Insulin release in response to ramp of amino acid mixture (SUR-1−/− islets [2]; amino acids 0-12 mM, 100 nM exendin-(9-39) (FIG. 5)): blocked | Glucose tolerance (SUR-1−/− mice [3]; oral glucose 2 g/kg, during treatment (FIG. 4A)): did not significantly impair; also recorded: did not influence | Return to baseline blood glucose levels (SUR-1−/− mice [3]; oral glucose tolerance test, 120 minute time point): minor delay | Glucose tolerance (wild-type littermates [4]): no effect | Peripheral insulin sensitivity [5]: did not impact; also recorded: did not influence | Basal intracellular calcium (SUR-1−/− islets [6]; SUR-1−/− islets (FIG. 6)): did not affect | Amino acid-stimulated rise in intracellular calcium (SUR-1−/− islets [6]): no effect | Amino acid-stimulated rise in intracellular calcium (SUR-1−/− islets [6]; listed as exendin-(9-39)): did not impact | Insulin Secretion (SUR-1−/− islets [7]; 100 nM exendin-(9-39) + 4 mM AAM (amino acid-stimulated), AAM alone 389 ± 17): 219 ± 14 ng/100 islets/30 min | Insulin Secretion (SUR-1−/− islets [7]; 100 nM exendin-(9-39) + 4 mM AAM (amino acid-stimulated), AAM alone 389 ± 17, listed as exendin-(9-39)): 219±14 ng/100 islets/30 min | Insulin Secretion (SUR-1−/− islets [7]; basal, 100 nM exendin-(9-39), baseline 221 ± 22): 126 ± 12^a ng/100 islets/30 min | Insulin Secretion (SUR-1−/− islets [7]; basal, 100 nM exendin-(9-39), baseline 221 ± 22, listed as exendin-(9-39)): 126±12 ng/100 islets/30 min | Fasting blood glucose levels (SUR-1−/− mice [8]; day 3, mean±SEM): 82.2 ± 6.3 mg/dL | Fasting blood glucose levels (SUR-1−/− mice [8]; day 7, mean±SEM): 82 ± 4.7 mg/dL | Effect on fasting blood glucose levels (in words) (SUR-1−/− mice [8]; 12-16 hour fast, day 7 (FIG. 2)): normalized | Fasting blood glucose levels vs. vehicle-treated wild type controls (wild-type littermates [9]): not different | cAMP Content (SUR-1−/− islets [10]; 100 nM exendin-(9-39) + 4 mM AAM (amino acid-stimulated)): 52.5 ± 9.4^c pmol/100 islets | cAMP Content (SUR-1−/− islets [10]; 100 nM exendin-(9-39) + 4 mM AAM (amino acid-stimulated), listed as exendin-(9-39)): 20.9±4.4 pmol/100 islets | cAMP Content (SUR-1−/− islets [10]; basal, 100 nM exendin-(9-39), no exogenous GLP-1, glucose free KRBB, baseline 40.1 ± 4.2): 20.5 ± 2.3^a pmol/100 islets | cAMP Content (SUR-1−/− islets [10]; basal, 100 nM exendin-(9-39), no exogenous GLP-1, glucose free KRBB, baseline 40.1 ± 4.2, listed as exendin-(9-39)): 20.5±2.3 pmol/100 islets
